# Assay: effective fugacity rate on heating with hot air current from ring heater and fan (FIG. 1 apparatus)
# Assay type: physicochemical
# Details: Table 5, Comparative Example 1: without blowing agent
# Description: This invention will be described below in greater detail with reference to examples, in which the effective fugacity rates of active ingredients are determined by volatilizing the ingredient within a closed container, passing the air within the container through a solvent which completely dissolves the active ingredients, such as benzene, acetone, water, chloroform or dichloromethane to cause the solvent to absorb the vaporized ingredient in the air, concentrating the solvent and subjecting the concentrate to gas chromatography. The fugacity rate is expressed in terms of the ratio in percent of the quantity of the vaporized active ingredient to the quantity of the ingredient initially admixed with a blowing agent.
# Each of the specimen mixtures of insecticide and blowing agent listed in Table 2 is placed in an inner case 8 (60 cm^3 in capacity) fitted in an apparatus (15 cm in diameter and 15 cm in height) provided in its passage 2 with the same ring heater 6 as shown in FIG. 1.
# The ring heater 6 (power 400 W) and a fan 4 (with 4 blades) are energized to produce a hot air current. The fan 4 is driven at 3000 r.p.m. The mixture is heated for about 5 minutes (up to a temperature of about 300° C.) with the hot air current to thermally decompose the blowing agent and diffuse the vapor of the insecticide. […]
structure (smiles),measurement,value
CC(C)=CC1C(C(=O)OCc2coc(Cc3ccccc3)c2)C1(C)C (stereo not shown) [Specimen 27],effective fugacity rate,0.4%

# — US4228124A, “Fumigating method and apparatus” (priority 1979, dated 1980)
